Tests used:
cIAP1-BIR3 = target: T1, cIAP1-BIR3 (Homo sapiens, UniProt Q13490); assay: cIAP1-BIR3 fluorescence polarization binding assay; settings: FP, probe AbuRPFK-5FAM (SM5F) 5 nM, cIAP1-BIR3 15 nM, 60 min at 25° C.
T1 construct: cIAP1-BIR3; purchased Reaction Biology APT-11-370
In short: (§1)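 Fluorescence polarization competition using 5-carboxyfluorescein-labelled peptide probe AbuRPFK-5FAM; protein and compound preincubated 15 min, probe added, then 60 min at 25° C.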

XIAP-BIR3 = target: T2, XIAP-BIR3 (Homo sapiens, UniProt P98170); assay: XIAP-BIR3 fluorescence polarization binding assay; settings: FP, probe AbuRPFK-5FAM (SM5F) 5 nM, XIAP-BIR3 40 nM, 60 min at 25° C.
T2 construct: XIAP-BIR3; purchased Reaction Biology APT-11-374
T2 sequence (P98170 241-356 limits assumed): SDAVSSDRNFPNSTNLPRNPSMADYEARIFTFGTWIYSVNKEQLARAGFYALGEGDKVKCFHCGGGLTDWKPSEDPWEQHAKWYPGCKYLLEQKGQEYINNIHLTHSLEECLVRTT
In short: as §1

cIAP2-BIR3 = target: T3, cIAP2-BIR3 (Homo sapiens, UniProt Q13489); assay: cIAP2-BIR3 fluorescence polarization binding assay; settings: FP, probe AbuRPFK-5FAM (SM5F) 5 nM, cIAP2-BIR3 80 nM, 60 min at 25° C.
T3 construct: cIAP2-BIR3; purchased Reaction Biology APT-11-372
T3 sequence (Q13489 238-349 limits assumed): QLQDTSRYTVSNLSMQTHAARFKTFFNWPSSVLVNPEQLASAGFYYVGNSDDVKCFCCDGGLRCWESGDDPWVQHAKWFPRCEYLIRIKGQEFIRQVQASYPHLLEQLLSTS
In short: as §1

T1 sequence (Q13490 253-363 limits assumed): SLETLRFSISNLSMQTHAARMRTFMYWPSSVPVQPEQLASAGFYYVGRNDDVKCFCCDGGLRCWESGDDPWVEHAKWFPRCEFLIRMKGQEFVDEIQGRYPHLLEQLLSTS

| IC50 (cIAP1-BIR3) [nM] | IC50 (XIAP-BIR3) [nM] | IC50 (cIAP2-BIR3) [nM] | SMILES |
| --- | --- | --- | --- |
| 1 to 10 | 100 to 1000 | 1 to 10 | CN[C@@H](C)C(=O)N[C@H](C(=O)N1CCC[C@H]1C(=O)N[C@@H]1CCCc2c(OCCOCCOc3cccc4c3CCC[C@H]4NC(=O)[C@@H]3CCCN3C(=O)[C@@H](NC(=O)[C@H](C)NC)C(C)C)cccc21)C(C)C [Compound II-A, (2S)-1-[(2S)-3-Methyl-2-[(2S)-2-(methylamino)propanamido]butanoyl]-N-[(1R)-5-[2-(2-{[(5R)-5-[(2S)-1-[(2S)-3-methyl-2-[(2S)-2-(methylamino)propanamido]butanoyl]pyrrolidine-2-amido]-5,6,7,8-tetrahydronaphthalen-1-yl]oxy}ethoxy)ethoxy]-1,2,3,4-tetrahydronaphthalen-1-yl]pyrrolidine-2-carboxamide] |
| 1 to 10 | 10 to 100 | 10 to 100 | CN[C@@H](C)C(=O)N[C@H](C(=O)N1CCC[C@H]1C(=O)N[C@@H]1CCc2c(-c3cccc4c3CC[C@H]4NC(=O)[C@@H]3CCCN3C(=O)[C@@H](NC(=O)[C@H](C)NC)C(C)C)cccc21)C(C)C [Compound V-G, (2S)-1-[(2S)-3-methyl-2-[(2S)-2-(methylamino)propanamido]butanoyl]-N-[(1R,1′R)-1′-[(2S)-1-[(2S)-3-methyl-2-[(2S)-2-(methylamino)propanamido]butanoyl]pyrrolidine-2-amido]-1H,1′H,2H,2′H,3H,3′H-[4,4′-biinden]-1-yl]pyrrolidine-2-carboxamide] |
| 1 to 10 | 10 to 100 | 10 to 100 | CN[C@@H](C)C(=O)N[C@H](C(=O)N1CCC[C@H]1C(=O)N[C@@H]1CCCc2c(-c3ccc(-c4cccc5c4CCC[C@H]5NC(=O)[C@@H]4CCCN4C(=O)[C@@H](NC(=O)[C@H](C)NC)C4CCCCC4)cc3)cccc21)C1CCCCC1 [Compound III, (2S)-1-[(2S)-2-Cyclohexyl-2-[(2S)-2-(methylamino)propanamido]acetyl]-N-[(1R)-5-[4-[(5R)-5-[(2S)-1-[(2S)-2-cyclohexyl-2-[(2S)-2-(methylamino)propanamido]acetyl]pyrrolidine-2-amido]-5,6,7,8-tetrahydronaphthalen-1-yl]phenyl]-1,2,3,4-tetrahydronaphthalen-1-yl]pyrrolidine-2-carboxamide] |
| 1 to 10 | 10 to 100 | 10 to 100 | CN[C@@H](C)C(=O)N[C@H](C(=O)N1CCC[C@H]1C(=O)N[C@@H]1CCCc2c(Nc3cccc4c3CCC[C@H]4NC(=O)[C@@H]3CCCN3C(=O)[C@@H](NC(=O)[C@H](C)NC)C(C)C)cccc21)C(C)C [Compound VI-B, (S)-1-(methyl-L-alanyl-L-valyl)-N—((R)-5-(((R)-5-((S)-1-(methyl-L-alanyl-L-valyl)pyrolidine-2-carboxamido)-5,6,7,8-tetrahydronaphthalen-1-yl)amino)-1,2,3,4-tetrahydronaphthalen-1-yl)pyrrolidine-2-carboxamide] |
| 1 to 10 | 100 to 1000 | 10 to 100 | CN[C@@H](C)C(=O)N[C@@H](C)C(=O)N1CCC[C@H]1C(=O)N[C@@H]1CCCc2c(OCCCCCOc3cccc4c3CCC[C@H]4NC(=O)[C@@H]3CCCN3C(=O)[C@H](C)NC(=O)[C@H](C)NC)cccc21 [Compound I-C, (2S)-1-[(2S)-2-[(2S)-2-(methylamino)propanamido]popanoyl]-N-[(1R)-5-[(5-[[(5R)-5-[(2S)-1-[(2S)-2-[(2S)-2-(methylamino)propanamido]propanoyl]pyrrolidine-2-amido]-5,6,7,8-tetrahydmnaphthalen-1-yl]oxy]pentyl)oxy]-1,2,3,4-tetrahydronaphthalen-1-yl]pyrrolidine-2-carboxamide] |
| 1 to 10 | 10 to 100 | 1 to 10 | CC[C@H](NC(=O)[C@H](C)NC)C(=O)N1CCC[C@H]1C(=O)N[C@@H]1CCCc2c(-c3cccc4c3CCC[C@H]4NC(=O)[C@@H]3CCCN3C(=O)[C@H](CC)NC(=O)[C@H](C)NC)cccc21 [V-I, (2S)-1-[(2S)-2-[(2S)-2-(methylamino)propanamido]butanoyl]-N-[1(5R,5′R)-5′-[(2S)-1-[(2S)-2-[(2S)-2-(methylamino)propanamido]butanoyl]pyrrolidine-2-amido]-5H,5′H,6H,6′H,7H,7′H,8H,8′H-[1,1′-binaphthalen]-5-yl]pyrrolidine-2-carboxamide; Bis(Formic Acid)] |

More lines, now with the values behind:

| SMILES | IC50 (cIAP1-BIR3) [nM] | IC50 (XIAP-BIR3) [nM] | IC50 (cIAP2-BIR3) [nM] |
| --- | --- | --- | --- |
| CN[C@@H](C)C(=O)N[C@H](C(=O)N1CCC[C@H]1C(=O)N[C@@H]1CCOc2c(-c3cccc4c3OCC[C@H]4NC(=O)[C@@H]3CCCN3C(=O)[C@@H](NC(=O)[C@H](C)NC)C(C)(C)C)cccc21)C(C)(C)C [Compound V-D, (2S)-1-[(2S)-3,3-dimethyl-2-[(2S)-2-(methylamino)propanamido]butanoyl]-N-[(4R)-8-[(4R)-4-[(2S)-1-(2S)-3,3-dimethyl-2-[(2S)-2-(methylamino)propanamido]butanoyl]pyrrolidine-2-amido]-3,4-dihydro-2H-1-benzopyran-8-yl-3,4-dihydro-2H-1-benzopyran-4-yl]pyrrolidine-2-carboxamide] | 1 to 10 | 10 to 100 | 10 to 100 |
| CN[C@@H](C)C(=O)N[C@H](C(=O)N1CCC[C@H]1C(=O)N[C@@H]1CCc2c(OCCOCCOc3cccc4c3CC[C@H]4NC(=O)[C@@H]3CCCN3C(=O)[C@@H](NC(=O)[C@H](C)NC)C3CCCCC3)cccc21)C1CCCCC1 [Compound II-F, (2S)-1-[(2S)-2-cyclohexyl-2-[(2S)-2-(methylamino)propanamido]acetyl]-N-[(1R)-4-[2-(2-[[(1R)-1-[(2S)-1-[(2S)-2-cyclohexyl-2-[(2S)-2-(methylamino)propanamido]acetyl]pyrrolidine-2-amido]-2,3-dihydro-1H-inden-4-yl]oxy]ethoxy)ethoxy]-2,3-dihydro-1H-inden-1-yl]pyrrolidine-2-carboxamide] | 1 to 10 | 10 to 100 | 10 to 100 |
| CN[C@@H](C)C(=O)N[C@H](C(=O)N1CCC[C@H]1C(=O)N[C@@H]1CCCc2c(OCCc3ccc(CCOc4cccc5c4CCC[C@H]5NC(=O)[C@@H]4CCCN4C(=O)[C@@H](NC(=O)[C@H](C)NC)C4CCCCC4)cc3)cccc21)C1CCCCC1 [Compound I, (2S)-1-[(2S)-2-Cyclohexyl-2-[(2S)-2-(methylamino)propanamido]acetyl]-N-[(1R)-5-[2-[4-(2-[[(5R)-5-[(2S)-1-[(2S)-2-cyclohexyl-2-[(2S)-2-(methylamino)propanamido]acetyl]pyrrolidine-2-amido]-5,6,7,8-tetrahydronaphthalen-1-yl]oxy]ethyl)phenyl]ethoxy]-1,2,3,4-tetrahydmnaphthalen-1-yl]pyrrolidine-2-carboxamide] | 1 to 10 | 10 to 100 | 10 to 100 |
| CN[C@@H](C)C(=O)N[C@H](C(=O)N1CCC[C@H]1C(=O)N[C@@H]1CCCc2c(OCCOCCOc3cccc4c3CCC[C@H]4NC(=O)[C@@H]3CCCN3C(=O)[C@@H](NC(=O)[C@H](C)NC)C3CCOCC3)cccc21)C1CCOCC1 [Compound II-B, (2S)-1-[(2S)-2-[(2S)-2-(Methylamino)propanamido]-2-(oxan-4-yl)acetyl]-N-[(1R)-5-[2-(2-{[(5R)-5-[(2S)-1-[(2S)-2-[(2S)-2-(methylamino)propanamido]-2-(oxan-4-yl)acetyl]pyrrolidine-2-amido]-5,6,7,8-tetrahydronaphthalen-1-yl]oxy}ethoxy)ethoxy]-1,2,3,4-tetrahydronaphthalen-1-yl]pyrrolidine-2-carboxamide] | 1 to 10 | 10 to 100 | 10 to 100 |
| CN[C@@H](C)C(=O)N[C@H](C(=O)N1CCC[C@H]1C(=O)N[C@@H]1CCCc2c(OCCc3ccc(CCOc4cccc5c4CCC[C@H]5NC(=O)[C@@H]4CCCN4C(=O)[C@@H](NC(=O)[C@H](C)NC)C4CCCCC4)cc3)cccc21)C1CCCCC1 [Compound IV, (2S)-1-[(2S)-2-Cyclohexyl-2-[(2S)-2-(methylamino)propanamido]acetyl]-N-[(1R)-5-[2-[4-(2-[[(5R)-5-[(2S)-1-[(2S)-2-cyclohexyl-2-[(2S)-2-(methylamino)propanamido]acetyl]pyrrolidine-2-amido]-5,6,7,8-tetrahydronaphthalen-1-yl]oxy]ethyl)phenyl]ethoxy]-1,2,3,4-tetrahydronaphthalen-1-yl]pyrrolidine-2-carboxamide] | 10 to 100 | 100 to 1000 | 10 to 100 |
| CN[C@@H](C)C(=O)N[C@H](C(=O)N1CCC[C@H]1C(=O)N[C@@H]1CCOc2c(-c3cccc4c3OCC[C@H]4NC(=O)[C@@H]3CCCN3C(=O)[C@@H](NC(=O)[C@H](C)NC)C3CCOCC3)cccc21)C1CCOCC1 [Compound V-Q, (S)-1-((S)-2-((S)-2-(methylamino)propanamido)-2-(tetrahydro-2H-pyran-4-yl)acetyl)-N-((4R,4′R)-4′-((S)-1-((S)-2-((S)-2-(methylamino)propanamido)-2-(tetrahydro-2H-pyran-4-yl)acetyl)pyrrolidine-2-carboxamido)-[8,8′-bichroman]-4-yl)pyrrolidine-2-carboxamide] | 1 to 10 | 10 to 100 | 10 to 100 |
| CN[C@@H](C)C(=O)N[C@H](C(=O)N1CCC[C@H]1C(=O)N[C@@H]1CCCc2c(OCCCCCOc3cccc4c3CCC[C@H]4NC(=O)[C@@H]3CCCN3C(=O)[C@@H](NC(=O)[C@H](C)NC)C3CCOCC3)cccc21)C1CCOCC1 [Compound I-A, (S)-1-((S)-2-((S)-2-(methylamino)propanamido)-2-(tetrahydro-2H-pyran-4-yl)acetyl)-N—((R)-5-((5-(((R)-5-((S)-1-((S)-2-((S)-2-(methylamino)propanamido)-2-(tetrahydro-2H-pyran-4-yl)acetyl)pyrrolidine-2-carboxamido)-5,6,7,8-tetrahydronaphthalen-1-yl)oxy)pentyl)oxy)-1,2,3,4-tetrahydmnaphthalen-1-yl)pyrrolidine-2-carboxamide] | 1 to 10 | 10 to 100 | 1 to 10 |

Source: patent publication US20220220152A1, “BIVALENT ANTAGONISTS OF INHIBITORS OF APOPTOSIS PROTEINS” (Hepagene Therapeutics (HK) Limited, priority 2019, published 2022)
